Reference: EP0186807A2, “Anthracycline derivatives, their microbiological preparation and their use as medicines” (HOECHST AKTIENGESELLSCHAFT, priority 1984, dated 1986)
In brackets after ≈: the same amount, converted by molar mass.

Key:
[1] = system: Candida albicans; assay: Agar well diffusion (inhibition zone); assay type: cell-based; conditions: 1 mg/ml solution in a 6 mm well in agar containing Candida albicans; read-out: Hofdurchmesser
Description: (§1) Bestimmt wurde die bakteriostatische Wirkung von Kesarirhodin. Die Resultate, die als Durchmesser (in Millimetern) der Hemmhöfe, erzeugt durch die Substanz in Form einer 1 mg/ml-Lösung in einem Loch von 6 mm Durchmesser in Agar, das den Testorganismus enthält, angegeben sind, werden in der nachfolgenden Tabelle, Tabelle II, dargestellt. Kesarirhodine sind gegen gram-positive Bakterien und Pilze wirksam und können deshalb als Antibiotika zur Behandlung von Pilz- und Staphylokokken-Infektionen, Diphterie, Pneumonie usw. eingesetzt werden.

[2] = Solubility in solvents (qualitative); assay type: physicochemical
[3] = system: Mäuse-L 1210-Leukämiezellen; assay: Stem cell test (colony formation in soft agar, continuous incubation); assay type: cell-based; conditions: Mus musculus, L1210, 168 h, read-out: IC50 Stammzellentest 7 Tage Inkubation
Text: (§2) Die Ermittlung der zytostatischen Aktivität der Kesarirhodine erfolgte in der nachfolgend beschriebenen Weise an Mäuse-L 1210-Leukämiezellen.
Diese Methode dient zum Nachweis der Wirkung der Prüfsubstanz auf das Wachstum von Leukämiezellen über mehrere Generationen (da die Dauer eines Zellzyklus 10 - 12 Stunden beträgt, werden innerhalb des Untersuchungszeitraumes von 7 Tagen rund 14 aufeinanderfolgende Generationen erfaßt).
In diesem Test beruht die Wirkung von zytotoxischen Substanzen auf der Verminderung der Zahl beobachtbarer Kolonien im Vergleich zur unbehandelten Kontrolle. Es wird folgende Methodik verwendet: • Pro Platte werden 500 L 1210-Leukämiezellen verwendet. Die Experimente werden bei kontinuierlicher Inkubation mit verschiedenen Konzentrationen der Prüfsubstanz durchgeführt, wobei die Substanz vor dem Aufbringen der Zellen auf die Platte der oberen Agarschicht beigemischt wird. Die Platten werden 7 Tage lang in einem Brutschrank gelagert (37°C, 5 % C023 95 % relative Luftfeuchtigkeit). Anschließend wird die Anzahl der entstandenen Kolonien mit einem Durchmesser von mehr als 60 um mit einem umgekehrten Mikroskop gezählt. Die Resultate werden als Prozentsatz der auf den behandelten Platten gebildeten Kolonien im Vergleich zu denen der unbehandelten Kontrolle ausgedrückt. Mit den ermittelten Werten wird eine Dosiswirkungskurve gezeichnet, aus welcher der IC50-Wert graphisch ermittelt wird. Die IC50-Werte der Kesarirhodine werden in Tabelle III mit denen von Adriamycin verglichen.

[4] = system: Staphylococcus aureus 209P; assay: Bacteriostatic activity, agar well diffusion (inhibition zone); assay type: cell-based; conditions: 1 mg/ml solution in a 6 mm well in agar containing Staphylococcus aureus 209P; read-out: Hofdurchmesser
Description: as §1

[5] = system: Bacillus subtilis; assay: as above; assay type: cell-based; conditions: 1 mg/ml solution in a 6 mm well in agar containing Bacillus subtilis; read-out: Hofdurchmesser
Description: as §1

[6] = system: Mäuse-L 1210-Leukämiezellen; assay: Proliferation test (14C-thymidine incorporation); assay type: cell-based; conditions: Mus musculus, read-out: IC50 Proliferations-test
Text: as §2
Bei dieser in vitro-Methode ist es nach der Inkubation der Zellen mit verschiedenen Konzentrationen der Prüfsubstanz möglich, die eingebaute Menge eines radioaktiv markierten DNS-Vorläufers (z.B. 14C-Thymidin) in einer wachsenden Zelle zu bestimmen. Als Kontrolle dienen dem gleichen Verfahren unterzogenen unbehandelte L 1210-Zellen. Die Methode wird nachstehend kurz zusammengefaßt: • L 1210-Zellen in exponentieller Wachstumsphase (5 x 10^3/ml in RPMI 1640) werden 72 Stunden lang (37°C, 5 % C02, 95 % relative Feuchtigkeit) in einer 96-Loch-Mikrotiterplatte mit unterschiedlichen Konzentrationen der Prüfsubstanz inkubiert. Als Kontrollen werden Zellen verwendet, die lediglich mit dem frischen Medium in Berührung gebracht werden. Es werden vier Löcher für jede Medikamentenkonzentration und Kontrolle angelegt. Nach 65 Stunden werden 50 µl 14C Thymidin (1,5 oCi/ml) zugefügt, um die Zell-DNS zu markieren. Nach 7 Stunden Inkubation werden die Zellen geerntet, die DNS mit 5 % Trichloressigsäure abgetrennt und mit Wasser und Methanol gewaschen. Nach dem Trocknen bei 50°C wird die Szintillationszahl mit 5 ml Szintillationsflüssigkeit bestimmt.
Die Ergebnisse werden als Quotient des Szintillationsindex nach der Inkubation mit den Testsubstanzen mit dem der Kontrollsubstanz ausgedrückt. Mit den ermittelten Werten wird eine Dosiswirkungskurve gezeichnet und der Wert IC50 d.h. die Konzentration der Prüfsubstanz, die den Einbau von markiertem Thymidin im Vergleich zur Kontrolle um 50 % hemmt, graphisch ermittelt. Die IC50-Werte sind denen von Adriamycin in der folgenden Tabelle III gegenübergestellt.

[7] = in Hexan (n-Hexan) und Petroläther (Petroleumäther)
[8] = in Methanol, Aceton, Äthylacetat, Chloroform und schwachen Säuren
[9] = 500 L 1210 cells per plate, soft agar, continuous incubation 7 days, colonies > 60 µm
[10] = L1210, L 1210 cells, 72 h incubation, 14C-thymidine incorporation, read graphically from dose-response curve

SMILES	zone of inhibition at 1000 µg/mL [1] [mm]	Löslichkeit [2, 7]	Löslichkeit [2, 8]	IC50 [3, 9] [µg/mL]	zone of inhibition at 1000 µg/mL [4] [mm]	zone of inhibition at 1000 µg/mL [5] [mm]	IC50 [6, 10] [µg/mL]	IC50 [3] [µg/mL]	IC50 ([6]; L1210, 72 h) [µg/mL]
CC[C@]1(O)Cc2c(O)c3c(c(O)c2[C@@H](O[C@H]2C[C@H](N(C)C)[C@H](O[C@H]4C[C@H](O)[C@H](O[C@H]5CC[C@H](O)[C@H](C)O5)[C@H](C)O4)[C@H](C)O2)C1)C(=O)c1c(O)cccc1C3=O [Kesarirhodin A]	20	wenig löslich	löslich	0.031 (≈ 0.0402 µM)	15	17	0.031 (≈ 0.0402 µM)	–	–
CC[C@]1(O)Cc2c(O)c3c(c(O)c2[C@@H](O[C@H]2C[C@H](N(C)C)[C@H](O[C@H]4CC[C@H](O[C@H]5CC[C@H](O)[C@H](C)O5)[C@H](C)O4)[C@H](C)O2)C1)C(=O)c1c(O)cccc1C3=O [Kesarirhodin B]	20	wenig löslich	löslich	0.028 (≈ 0.037 µM)	17	17	0.1 (≈ 0.132 µM)	–	–
COc1cccc2c1C(=O)c1c(O)c3c(c(O)c1C2=O)C[C@@](O)(C(=O)CO)C[C@@H]3O[C@H]1C[C@H](N)[C@H](O)[C@H](C)O1 [Adriamycin, reference compound]	–	–	–	–	–	–	–	0.022 (≈ 0.0405 µM)	0.006 (≈ 0.011 µM)
